This assay addresses T1, human oxytocin receptor (Homo sapiens, UniProt P30559).
T1 sequence (P30559 1-389): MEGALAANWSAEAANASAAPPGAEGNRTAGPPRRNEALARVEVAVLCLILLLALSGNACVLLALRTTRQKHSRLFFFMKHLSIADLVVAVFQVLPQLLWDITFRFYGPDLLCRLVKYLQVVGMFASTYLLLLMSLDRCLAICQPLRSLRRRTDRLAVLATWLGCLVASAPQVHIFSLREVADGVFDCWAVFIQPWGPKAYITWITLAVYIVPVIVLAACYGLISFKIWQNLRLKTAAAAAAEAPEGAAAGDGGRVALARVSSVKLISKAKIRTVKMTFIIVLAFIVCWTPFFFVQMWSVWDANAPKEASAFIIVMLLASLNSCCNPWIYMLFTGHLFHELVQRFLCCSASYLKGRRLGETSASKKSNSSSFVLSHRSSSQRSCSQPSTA
The assay is described as follows: Oxytocin binding in CHO cell membranes expressing human oxytocin receptors. As to conditions: [3H]oxytocin; for inhibition at 0.1 µM / OT % inhibition at 100 nM: 100 nM; for inhibition at 0.1 µM: read-out: OT % inhibition at 100 nM; for IC50: value in parentheses, read-out: OT (IC50). From the text:
Oxytocin Binding in Chinese Hamster Ovary Cell Membranes Expressing Human Oxytocin Receptors
Chinese Hamster Ovary (CHO) cells stably transfected with the human oxytocin receptor (cf. Tanizawa et al., U.S. Pat. No. 5,466,584 (1995) to Rohto Pharmaceutical Co. Ltd., Osaka, Japan) were obtained from M. Thibonnier, Case Western Reserve University School of Medicine, Cleveland, Ohio. A. Passaging and Amplification of Cells: CHO cells transfected with the human oxytocin receptors obtained from M. Thibonnier (pcDNA3.1 vector) are allowed to grow to confluency (approx. >90%) in T-150 flasks under sterile conditions, in a cell culture medium of F-12 Nutrient Mixture (HAM) with L-glutamine (Gibco Cat. # 11765-054) containing 15 mM HEPES (Gibco Cat. # 15630-080), 1% antibiotic/antimycotic (add 5 mL 100×, Gibco Cat. # 15240-062 per 500 mL F-12), 400 μg/mL of Geneticin (add 4 mL of 50 mg/mL per 500 mL F-12) and 10% Fetal Bovine Serum (Qualified, heat inactivated, Gibco Cat. # 16140-063). The medium is removed by aspiration and the cells are washed with 10 mL of Hank's Balanced Salt solution (Gibco Cat. # 14175-095). The salt solution is removed by aspiration and the cells trypsinized with 5 mL of trypsin-EDTA (0.05% trypsin, 0.53 mM EDTA-4Na, Gibco Cat. # 25300-070) for 1 min The trypsin is removed by aspiration and the cells dislodged by tapping. Cell Culture medium (e.g. 30 mL for 1:30 split) is immediately added and mixed well to inactivate trypsin. 1 mL of detached cells is added to new culture flasks containing fresh Cell Culture medium (e.g. into 25 mL per T-150 flask), and mixed gently. The cells are incubated at 37° C. in 5% CO2. The medium is changed at 3 to 4 days interval (or as appropriate). The cells grow to confluency (approx. >75%–95%) within 7–8 days. All steps are done under sterile conditions. B. Membrane Preparation: The cells are washed twice gently with Hank's Balanced Salt solution (eg, use 10 mL per T-150 flask). The excess solution is removed and the cells bathed for 15–30 min. in an enzyme-free Cell Dissociation Buffer (eg, use 8 mL Hank's Based, Gibco Cat. # 13150-016 per T-150 flask) until cells are loosened. The contents are transferred to centrifuge tubes (50 mL size) kept in ice bath. All subsequent steps are done at 4° C. The tubes are centrifuged at 300×g for 15 min (1380 rpm on SORVAL, Model RT6000D, using rotor for 50 mL tubes). The supernatant is discarded and the cells suspended in homogenizing buffer (10 mM Tris-HCl containing 0.25 M sucrose and 1 mM EDTA, pH 7.4) ensuring that the volume of the buffer is about ten times the volume of the cell pellet. The cells are pooled into a centrifuge tube (50 mL) and homogenized with a Polytron at setting 6 for 10 sec. The homogenate is transferred into a Potter-Elvjehm homogenizer and homogenized with 3 strokes. The homogenate is centrifuged at 1500×g for 10 min at 4° C. (3100 rpm using SORVAL, model RT6000D, using rotor for 50 mL tubes). The pellet is discarded. The supernatant is centrifuged at 100,000×g for 60 min. at 4° C. (Beckman L8-80M ultracentrifuge; spin at 37,500 rpm with rotor type 70 Ti for 50 mL tubes; 38,000 rpm with type 80Ti for 15 mL tubes; or 35,800 rpm with rotor type 45Ti). The supernantant is discarded and the pellet suspended in 3 to 4 mL of Tris buffer (50 mM TRIS-HCl, pH 7.4). The protein content is estimated by the Bradford or Lowry method. The volume of the membrane suspension is adjusted with the membrane buffer (50 mM Tris-HCl containing 0.1% BSA and 0.1 mM PMSF) to give 3.0 mg/mL (or as appropriate) of protein. The membranes are aliquoted and stored at −70° C. C. Radioligand Binding Assay: In wells of a 96-well format microtiter plate, is added 90, 110 or 130 μL (to make up a final volume of 200 μL) of assay buffer containing 50 mM of Tris-HCl (pH 7.4), […], 1 mg % aprotinin, 1 mg % leupeptin, 2 mg % 1,10-phenanthroline, 10 mg % trypsin inhibitor, and 0.1 mM PMSF. […]

The inhibition is the change of the read-out against control, counted positive when it falls. Regarding `COC(=O)c1ccc2c(c1)N(C(=O)c1ccc(C3CCCCC3)cc1)Cc1ccc(C(=O)N3CCN(C)CC3)n1C2.Cl` [Example 1, Methyl 10-(4-cyclohexylbenzoyl)-3-[(4-methyl-1-piperazinyl)carbonyl]-10,11-dihydro-5H-pyrrolo[2,1-c][1,4]benzodiazepine-8-carboxylate hydrochloride salt], the inhibition at 0.1 µM worked out at 14%. Same read-out and setting: the result for `CN1CCN(C(=O)c2ccc3n2Cc2ccc(C(=O)O)cc2N(C(=O)c2ccc(C4CCCCC4)cc2)C3)CC1` [Example 3, 10-(4-Cyclohexyl-benzoyl)-3-[(4-methyl-1-piperazinyl)carbonyl]-10,11-dihydro-5H-pyrrolo[2,1-c][1,4]benzodiazepine-8-carboxylic acid] reads -2%; that for `CC(C)(C)c1ccc(C(=O)c2ccc3n2Cc2ccccc2N(C(=O)c2ccc(C4CCCCC4)cc2)C3)cc1` [Example 5, [4-(tert-Butyl)phenyl][10-(4-cyclohexyl-benzoyl)-10,11-dihydro-5H-pyrrolo[2,1-c][1,4]benzodiazepin-3-yl]methanone], 46%. As a reminder, the IC50 is the concentration needed to halve the response being measured. Turning to `CC(=O)c1ccc2n1Cc1ccccc1N(C(=O)c1ccc(C3CCCCC3)cc1)C2` [Example 6, 1-[10-(4-Cyclohexyl-benzoyl)-10,11-dihydro-5H-pyrrolo[2,1-c][1,4]benzodiazepin-3-yl]-ethanone], the IC50 worked out at 105 nM. Take `O=C(c1ccc(C2CCCCC2)cc1)N1Cc2ccc(C(=O)C(Cl)(Cl)Cl)n2Cc2ccccc21` [Example 7, 2,2,2-Trichloro-1-[10-(4-cyclohexyl-benzoyl)-10,11-dihydro-5H-pyrrolo[2,1-c][1,4]benzodiazepin-3-yl]-1-ethanone]: the inhibition at 0.1 µM came out at 12%. Take `NNC(=O)c1ccc2n1Cc1ccccc1N(C(=O)c1ccc(C3CCCCC3)cc1)C2` [Example 8, 10-(4-Cyclohexy-benzoyl)-10,11-dihydro-5H-pyrrolo[2,1-c][1,4]benzodiazepine-3-carboxylic acid hydrazide]: the IC50 came to 127 nM. For `CC(=NNC(=O)c1ccc2n1Cc1ccccc1N(C(=O)c1ccc(C3CCCCC3)cc1)C2)N(C)C` [Example 9, N′-{[10-(4-Cyclohexyl-benzoyl)-10,11-dihydro-5H-pyrrolo[2,1-c][1,4]benzodiazepin-3-yl]carbonyl}-N,N-dimethylethanehydrazonamide], the concentration for half-maximal inhibition (IC50) was found to be 35.4 nM. With `CN(C)C=NNC(=O)c1ccc2n1Cc1ccccc1N(C(=O)c1ccc(C3CCCCC3)cc1)C2` [Example 10, N′-{[10-(4-Cyclohexyl-benzoyl)-10,11-dihydro-5H-pyrrolo[2,1-c][1.4]benzodiazepin-3-yl]carbonyl}-N,N-dimethylhydrazonoformamide], the IC50 was found to be 75.7 nM. In the case of `CC(=O)NNC(=O)c1ccc2n1Cc1ccccc1N(C(=O)c1ccc(C3CCCCC3)cc1)C2` [Example 11, N′-Acetyl-10-(4-cyclohexyl-benzoyl)-10,11-dihydro-5H-pyrrolo[2,1-c][1,4]benzodiazepine-3-carbonyl-hydrazide], the IC50 was 52.1 nM. Regarding `Cc1ccccc1C(=O)NNC(=O)c1ccc2n1Cc1ccccc1N(C(=O)c1ccc(C3CCCCC3)cc1)C2` [Example 12, 10-(4-Cyclohexyl-benzoyl)-N′-(2-methylbenzoyl)-10,11-dihydro-5H-pyrrolo[2,1-c][1,4]benzodiazepine-3-carbonyl-hydrazide], the “OT % inhibition at 100 nM” value turned out to be 47%. Regarding `O=C(NNC(=O)C1CC1)c1ccc2n1Cc1ccccc1N(C(=O)c1ccc(C3CCCCC3)cc1)C2` [Example 13, 10-(4-Cyclohexyl-benzoyl)-N′-(cyclopropylcarbonyl)-10,11-dihydro-5H-pyrrolo[2,1-c][1,4]benzodiazepine-3-carbonyl-hydrazide], the “OT % inhibition at 100 nM” value stood at 73%. Regarding `Cc1cccc(C(=O)NNC(=O)c2ccc3n2Cc2ccccc2N(C(=O)c2ccc(C4CCCCC4)cc2)C3)c1` [Example 14, 10-(4-Cyclohexyl-benzoyl)-N′-(3-methyl-benzoyl)-10,11-dihydro-5H-pyrrolo[2,1-c][1,4]benzodiazepine-3-carbonyl-hydrazide], the “OT % inhibition at 100 nM” value is given as 53%. On to `O=C(NNC(=O)c1ccc2n1Cc1ccccc1N(C(=O)c1ccc(C3CCCCC3)cc1)C2)Nc1ccccc1` [Example 15, 2-{[10-(4-Cyclohexyl-benzoyl)-10,11-dihydro-5H-pyrrolo[2,1-c][1,4]benzodiazepin-3-yl]carbonyl}-N-phenyl-1-hydrazinecarboxamide], for which the inhibition at 0.1 µM amounted to 16%. Turning to `NC(=O)c1ccc2n1Cc1ccccc1N(C(=O)c1ccc(C3CCCCC3)cc1)C2` [Example 16, 10-(4-Cyclohexyl-benzoyl)-10,11-dihydro-5H-pyrrolo[2,1-c][1,4]benzodiazepin-3-carboxamide], the IC50 was found to be 133 nM. Take `CN(C)/C=N/C(=O)c1ccc2n1Cc1ccccc1N(C(=O)c1ccc(C3CCCCC3)cc1)C2` [Example 17]: the IC50 turned out to be 51.4 nM.

With `C/C(=N\C(=O)c1ccc2n1Cc1ccccc1N(C(=O)c1ccc(C3CCCCC3)cc1)C2)N(C)C` [Example 18], the IC50 amounted to 4.36 nM. On the same count and under the same terms, the result for `CN(C)NC(=O)c1ccc2n1Cc1ccccc1N(C(=O)c1ccc(C3CCCCC3)cc1)C2` [Example 19, 10-(4-Cyclohexyl-benzoyl)-N′-N′-dimethyl-10,11-dihydro-5H-pyrrolo[2,1-c][1,4]benzodiazepine-3-carbohydrazide] reads 130 nM. On to `CN(C)/C=C/C(=O)c1ccc2n1Cc1ccccc1N(C(=O)c1ccc(C3CCCCC3)cc1)C2` [Example 20, (E)-1-[10-(4-Cyclohexyl-benzoyl)-10,11-dihydro-5H-pyrrolo[2,1-c][1,4]benzodiazepin-3-yl]-3-(dimethylamino)-2-propen-1-one], for which the inhibition at 0.1 µM worked out at 43%. Still for that read-out and setting: the result for `CN(N)C(=O)c1ccc2n1Cc1ccccc1N(C(=O)c1ccc(C3CCCCC3)cc1)C2` [Example 21, 10-(4-Cyclohexyl-benzoyl)-N-methyl-10,11-dihydro-5H-pyrrolo[2,1-c][1,4]benzodiazepine-3-carboxylic acid hydrazide] reads 68%. With `O=C(O)c1ccc2n1Cc1ccccc1N(C(=O)c1ccc(C3CCCCC3)cc1)C2` [Example 22, 10-(4-Cyclohexyl-benzoyl)-10,11-dihydro-5H-pyrrolo[2,1 c][1,4]benzodiazepine-3-carboxylic acid], the “OT % inhibition at 100 nM” value is given as 34%. In the case of `O=C(c1ccc2n1Cc1ccccc1N(C(=O)c1ccc(C3CCCCC3)cc1)C2)N1CCN(c2ncccn2)CC1` [Example 23], the IC50 stood at 41.8 nM.

Values taken from patent US7202239B2, “Cyclohexylphenyl carboxamides tocolytic oxytocin receptor antagonists” (Wyeth, priority 2001, dated 2007).
